# System: 253994-281-T-J1-PDC KRAS-mutant spheroids with HUVEC/MSC, viability
# Experiment: Anticancer human tumor 253994-281-T-J1-PDC patient-derived colorectal carcinoma cell line growth inhibition [KRAS2]
# Conditions: for IC50: curve of first compound; for viability, T/C: stronger effect = lower value
# Summary of the method: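 Combination screen of spheroid viability in tumor-cell co-cultures with endothelial (HUVEC) and mesenchymal stem cell stroma. Each agent was tested in half-log dilutions, topping at clinical Cmax or at 10 microM without a known Cmax.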
# [1] = second compound 0.1 µM, first compound 0.000316 µM
# [2] = second compound 0.1 µM, first compound 0.001 µM
# [3] = second compound 0.1 µM, first compound 0.00316 µM
# [4] = second compound 0.1 µM, first compound 0.01 µM
# [5] = second compound 0.1 µM, first compound 0.0316 µM
# [6] = second compound 0.316 µM, first compound 0.000316 µM
# [7] = second compound 0.316 µM, first compound 0.001 µM
# [8] = second compound 0.316 µM, first compound 0.00316 µM
# [9] = second compound 0.316 µM, first compound 0.01 µM
# [10] = second compound 0.316 µM, first compound 0.0316 µM
# [11] = second compound 1 µM, first compound 0.000316 µM
# [12] = second compound 1 µM, first compound 0.001 µM
# [13] = second compound 1 µM, first compound 0.00316 µM
# [14] = second compound 1 µM, first compound 0.01 µM
# [15] = second compound 1 µM, first compound 0.0316 µM
# [16] = second compound 3.16 µM, first compound 0.000316 µM
# [17] = second compound 3.16 µM, first compound 0.001 µM
# [18] = second compound 3.16 µM, first compound 0.00316 µM
# [19] = second compound 3.16 µM, first compound 0.01 µM
# [20] = second compound 3.16 µM, first compound 0.0316 µM
# [21] = second compound 10 µM, first compound 0.000316 µM
# [22] = second compound 10 µM, first compound 0.001 µM
# [23] = second compound 10 µM, first compound 0.00316 µM
# [24] = second compound 10 µM, first compound 0.01 µM
# [25] = second compound 10 µM, first compound 0.0316 µM
# [26] = second compound 0.1 µM, first compound 0.1 µM
# [27] = second compound 0.316 µM, first compound 0.1 µM
# [28] = second compound 1 µM, first compound 0.1 µM
# [29] = second compound 3.16 µM, first compound 0.1 µM
# [30] = second compound 10 µM, first compound 0.1 µM
# 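Also: spheroids exposed to agents for seven days before readout.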
# 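For viability, T/C in this document: percent of DMSO vehicle control viability.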
structure (smiles),measurement,setting,value
CC(=O)Nc1cccc(-n2c(=O)n(C3CC3)c(=O)c3c(Nc4ccc(I)cc4F)n(C)c(=O)c(C)c32)c1 + CNCc1ccccc1-c1csc(C(C)Nc2nc(C)nc3cc(OC)c(OC)cc23)c1,IC50,second compound 0.1 µM,0.649 nM
same,IC50,second compound 0.316 µM,0.415 nM
same,IC50,second compound 1 µM,0.205 nM
same,IC50,second compound 3.16 µM,< 0.1 nM
same,IC50,second compound 10 µM,< 0.1 nM
same,"viability, T/C","second compound 0.1 µM, first compound 0.0001 µM",81.3%
same,"viability, T/C",[1],81.5%
same,"viability, T/C",[2],31.4%
same,"viability, T/C",[3],19%
same,"viability, T/C",[4],10.6%
same,"viability, T/C",[5],5.26%
same,"viability, T/C","second compound 0.316 µM, first compound 0.0001 µM",80.2%
same,"viability, T/C",[6],57.2%
same,"viability, T/C",[7],28.7%
same,"viability, T/C",[8],17.2%
same,"viability, T/C",[9],10.9%
same,"viability, T/C",[10],4.68%
same,"viability, T/C","second compound 1 µM, first compound 0.0001 µM",67.4%
same,"viability, T/C",[11],39.9%
same,"viability, T/C",[12],16.3%
same,"viability, T/C",[13],10.7%
same,"viability, T/C",[14],7.62%
same,"viability, T/C",[15],3.86%
same,"viability, T/C","second compound 3.16 µM, first compound 0.0001 µM",5.81%
same,"viability, T/C",[16],1.42%
same,"viability, T/C",[17],0.92%
same,"viability, T/C",[18],0.18%
same,"viability, T/C",[19],0.16%
same,"viability, T/C",[20],0.34%
same,"viability, T/C","second compound 10 µM, first compound 0.0001 µM",0.16%
same,"viability, T/C",[21],0.15%
same,"viability, T/C",[22],0.14%
same,"viability, T/C",[23],0.18%
same,"viability, T/C",[24],0.12%
same,"viability, T/C",[25],0.21%
CC(C)n1nc(-c2ccc3oc(N)nc3c2)c2c(N)ncnc21 + CNCc1ccccc1-c1csc(C(C)Nc2nc(C)nc3cc(OC)c(OC)cc23)c1,IC50,second compound 0.1 µM,> 100 nM
same,IC50,second compound 0.316 µM,> 100 nM
same,IC50,second compound 1 µM,> 100 nM
same,IC50,second compound 3.16 µM,0.316 nM
same,IC50,second compound 10 µM,< 0.316 nM
same,"viability, T/C",[1],96.7%
same,"viability, T/C",[2],86.8%
same,"viability, T/C",[3],74.5%
same,"viability, T/C",[4],75.8%
same,"viability, T/C",[5],79.7%
same,"viability, T/C",[26],50.8%
same,"viability, T/C",[6],91%
same,"viability, T/C",[7],87.5%
same,"viability, T/C",[8],82.7%
same,"viability, T/C",[9],73.2%
same,"viability, T/C",[10],78.1%
same,"viability, T/C",[27],57%
same,"viability, T/C",[11],93.3%
same,"viability, T/C",[12],78%
same,"viability, T/C",[13],79.3%
same,"viability, T/C",[14],76.8%
same,"viability, T/C",[15],73.3%
same,"viability, T/C",[28],51%
same,"viability, T/C",[16],37.9%
same,"viability, T/C",[17],45.2%
same,"viability, T/C",[18],56.9%
same,"viability, T/C",[19],9.64%
same,"viability, T/C",[20],42.3%
same,"viability, T/C",[29],28.2%
same,"viability, T/C",[21],0.12%
same,"viability, T/C",[22],0.13%
same,"viability, T/C",[23],0.13%
same,"viability, T/C",[24],0.11%
same,"viability, T/C",[25],0.13%
same,"viability, T/C",[30],0.18%
CC1(C)CCC(CN2CCN(c3ccc(C(=O)NS(=O)(=O)c4ccc(NCC5CCOCC5)c([N+](=O)[O-])c4)c(Oc4cnc5[nH]ccc5c4)c3)CC2)=C(c2ccc(Cl)cc2)C1 + CNCc1ccccc1-c1csc(C(C)Nc2nc(C)nc3cc(OC)c(OC)cc23)c1,IC50,second compound 0.1 µM,> 10000 nM
same,IC50,second compound 0.316 µM,6410 nM
same,IC50,second compound 1 µM,4570 nM
same,IC50,second compound 3.16 µM,< 31.6 nM
same,IC50,second compound 10 µM,< 31.6 nM
same,"viability, T/C",[5],99.5%
same,"viability, T/C",[26],105%
same,"viability, T/C","second compound 0.1 µM, first compound 0.316 µM",101%
same,"viability, T/C","second compound 0.1 µM, first compound 1 µM",99.5%
same,"viability, T/C","second compound 0.1 µM, first compound 3.16 µM",82.6%
same,"viability, T/C","second compound 0.1 µM, first compound 10 µM",69.9%
same,"viability, T/C",[10],86%
same,"viability, T/C",[27],94.3%
same,"viability, T/C","second compound 0.316 µM, first compound 0.316 µM",86.2%
same,"viability, T/C","second compound 0.316 µM, first compound 1 µM",80.9%
same,"viability, T/C","second compound 0.316 µM, first compound 3.16 µM",81.4%
same,"viability, T/C","second compound 0.316 µM, first compound 10 µM",30.8%
same,"viability, T/C",[15],82.7%
same,"viability, T/C",[28],83.7%
same,"viability, T/C","second compound 1 µM, first compound 0.316 µM",84.2%
same,"viability, T/C","second compound 1 µM, first compound 1 µM",78.1%
same,"viability, T/C","second compound 1 µM, first compound 3.16 µM",64.6%
same,"viability, T/C","second compound 1 µM, first compound 10 µM",19.4%
same,"viability, T/C",[20],33.9%
same,"viability, T/C",[29],29.8%
same,"viability, T/C","second compound 3.16 µM, first compound 0.316 µM",38.1%
same,"viability, T/C","second compound 3.16 µM, first compound 1 µM",32.9%
same,"viability, T/C","second compound 3.16 µM, first compound 3.16 µM",13.1%
same,"viability, T/C","second compound 3.16 µM, first compound 10 µM",6.34%
same,"viability, T/C",[25],0.15%
same,"viability, T/C",[30],0.15%
same,"viability, T/C","second compound 10 µM, first compound 0.316 µM",0.13%
same,"viability, T/C","second compound 10 µM, first compound 1 µM",0.11%
same,"viability, T/C","second compound 10 µM, first compound 3.16 µM",0.11%
same,"viability, T/C","second compound 10 µM, first compound 10 µM",0.17%

# — PubChem BioAssay AID1963874 (Molecular Pharmacology Branch, DTP, NCI, 2024)
